Reference: ChEMBL document CHEMBL4177597, “A series of novel indazole derivatives of Sirt 1 activator as osteogenic regulators” (Bioorg Med Chem Lett, 2017)
Active and inactive are the calls of the source. The calls are words filed in the database; no cut-off is given here.

What was measured:
[1] = target: T1, NAD-dependent protein deacetylase sirtuin-1 (Homo sapiens) (UniProt Q96EB6); test: Activation of SIRT1 (unknown origin) by mass spectrophotometric analysis
T1 sequence (whole entry): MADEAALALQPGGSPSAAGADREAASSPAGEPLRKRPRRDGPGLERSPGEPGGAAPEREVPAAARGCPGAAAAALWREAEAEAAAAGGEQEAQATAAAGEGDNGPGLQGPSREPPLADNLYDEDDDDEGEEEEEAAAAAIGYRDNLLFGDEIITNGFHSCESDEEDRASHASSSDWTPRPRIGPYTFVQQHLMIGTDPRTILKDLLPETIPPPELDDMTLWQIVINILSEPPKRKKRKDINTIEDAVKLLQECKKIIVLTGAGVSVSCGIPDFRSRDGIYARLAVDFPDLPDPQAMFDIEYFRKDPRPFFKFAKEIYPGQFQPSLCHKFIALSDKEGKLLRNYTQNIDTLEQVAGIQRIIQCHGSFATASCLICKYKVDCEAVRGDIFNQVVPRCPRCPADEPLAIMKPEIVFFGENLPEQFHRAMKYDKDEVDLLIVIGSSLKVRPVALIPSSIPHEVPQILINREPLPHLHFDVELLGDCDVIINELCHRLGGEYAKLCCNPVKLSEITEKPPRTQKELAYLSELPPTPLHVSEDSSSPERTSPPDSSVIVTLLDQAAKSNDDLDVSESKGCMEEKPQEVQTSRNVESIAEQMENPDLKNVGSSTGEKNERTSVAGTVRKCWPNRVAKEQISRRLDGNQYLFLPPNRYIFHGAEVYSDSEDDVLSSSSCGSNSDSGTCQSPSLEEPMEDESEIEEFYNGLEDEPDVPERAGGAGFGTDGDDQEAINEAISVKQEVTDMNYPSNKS

[2] = Octanol-water apparent partition coefficient, log D of the compound at pH 7.4 after 24 hrs by shake flask method; format: physicochemical
[3] = target: T1, NAD-dependent protein deacetylase sirtuin-1 (Homo sapiens); test: Activation of SIRT1 in human U2OS cells assessed as increase in ALP activity using p-NPP as substrate measured after 30 mins by colorimetric method; format: cell-based
[4] = target: T1, NAD-dependent protein deacetylase sirtuin-1 (Homo sapiens); test: Activation of SIRT1 in human U2OS cells assessed as increase in deacetylation of doxorubicin-induced acetylated p53 at 0.01 to 1 uM by Western blot analysis; format: cell-based

SMILES | EC150 [1] [µM] | further results
Cn1nc(-c2cc3ccccc3s2)c2cc(NCc3cc(F)ccc3S(C)(=O)=O)ccc21 | 1.52 | –
CCS(=O)(=O)c1ccccc1CNc1ccc2c(c1)c(-c1ccc(C(=O)N[C@H]3CC[C@H](O)CC3)cc1)nn2C | 2.4 | –
Cn1nc(-c2ccc(C(=O)NCCc3ccn[nH]3)cc2)c2cc(NCc3cc(F)ccc3S(C)(=O)=O)ccc21 | 1.36 | –
Cn1nc(-c2ccc(C(=O)N[C@H]3CC[C@H](O)CC3)cc2)c2cc(NCc3cc(F)c(F)cc3S(C)(=O)=O)ccc21 | 0.4 | logD at 24 h [2]: 1.37; EC30 [3]: 0.65 nM; Activity [4]: Active
CNC(=O)c1ccc(-c2nn(C)c3ccc(NCc4cc(F)ccc4S(C)(=O)=O)cc23)cc1 | 2.92 | –
Cc1cc(S(C)(=O)=O)c(CNc2ccc3c(c2)c(-c2ccc(C(=O)N[C@H]4CC[C@H](O)CC4)cc2)nn3C)cc1F | 0.4 | logD at 24 h [2]: 1.41
Cn1nc(-c2ccc(C(=O)N[C@H]3CC[C@H](O)CC3)cc2)c2cc(NCc3cc(F)ccc3S(C)(=O)=O)ccc21 | 0.95 | –
COCCS(=O)(=O)c1ccccc1CNc1ccc2c(c1)c(-c1ccc(C(=O)N[C@H]3CC[C@H](O)CC3)cc1)nn2C | 7.23 | –
CCCS(=O)(=O)c1ccccc1CNc1ccc2c(c1)c(-c1ccc(C(=O)N[C@H]3CC[C@H](O)CC3)cc1)nn2C | 4.54 | –
Cn1nc(-c2ccc3ccccc3c2)c2cc(NCc3cc(F)ccc3S(C)(=O)=O)ccc21 | 2.88 | –
Cc1cc(CNc2ccc3c(c2)c(-c2ccc(C(=O)N[C@H]4CC[C@H](O)CC4)cc2)nn3C)c(S(C)(=O)=O)cc1F | > 20 | –
Cn1nc(-c2cnc3ccccc3c2)c2cc(NCc3cc(F)ccc3S(C)(=O)=O)ccc21 | 1.49 | –
Cn1nc(-c2ccc(C(=O)NCC3CCCO3)cc2)c2cc(NCc3cc(F)ccc3S(C)(=O)=O)ccc21 (configuration not stated) | 1.46 | –
